US9939427B2, “Method for evaluating the scent performance of perfumes or perfume mixtures” (Symrise AG, priority 2013, dated 2018)
Entries after “also recorded” stand apart in the source; their conditions may differ.

Key:
OR5L1 = target: T1, OR5L1 (Homo sapiens, UniProt Q8NGL2); test: Ca-imaging of OR5L1-transfected HEK293 cells; format: cell-based; parameters: key: ▪: 18 olfactory receptors responded to 32 odorants in related with specific anosmia; settings: individual odorant 200 μM, significant response p<0.05
T1 construct: specific primers, which amplify the complete open reading frame; expressed in transfected cells; host or cells: HEK293
Protocol: (§1) HEK293 cells were cultivated in Petri dishes (Ø35 mm) as previously described (Benbernou et al. 2007). We grow up HEK293 cells in culture medium containing standard DMEM with 10% heat-inactivated fetal bovine serum, 2 mM L-glutamine, 100 units/ml penicillin, and 100 units/ml streptomycin in a humidified atmosphere (37° C., 5% CO2). After 2-3 days, the transfection process was carried out, whereby the cell culture was 70-80% confluent. The calciumphosphate method was applied to transfect DNA plasmid transiently in HEK293 cells in case of Ca-imaging method.
(§2) Calcium cations and phosphate anions created crystal precipitations coupled with DNA which could invade into the cells through endocytosis. […]
(§3) Calcium imaging of the transfected HEK293 cells was done by using chambers determinate an inverted microscope (Olympus; IX70) using a 10× objective (CPIanFL N Olympus). Fluorescence emission was determined every 4 s by using a CCD camera (Charge Coupled Device, C9100 Hamamatsu). […] Odorants were manually monitored to drop each 4-5 s to transfected cells. […]
(§4) In experiments, Fura-2 Acetoxymethylester (Fura-2/AM) was applied. […] According to this feature, the analysis of 340/380 nm excitation ratio for Fura-2 allows to quantify intracellular calcium levels. […]

OR4C16 = target: T2, OR4C16 (Homo sapiens, UniProt Q8NGL9); test: Ca-imaging of OR4C16-transfected HEK293 cells; format: cell-based; parameters: key to OR4C16 responded to odorant: ▪: 18 olfactory receptors responded to 32 odorants in related with specific anosmia
T2 construct: specific primers, which amplify the complete open reading frame; expressed in transfected cells; host or cells: HEK293
Protocol: as §1, §2, §3, §4

OR1B1-789 = target: T3, OR1B1-789 (Homo sapiens, UniProt Q8NGR6, C262W); test: Ca-imaging of mutant OR1B1-789 in HEK293 cells; format: cell-based; settings: 200 μM, applied for 20 seconds
T3 construct: Full length primers included EcoRI and NotI restriction sites for further cloning into pCI expression vector; Rho-tag (N); expressed in transfected cells; host or cells: HEK293
Text: (§5) Mutations were introduced for OR1B1 and OR10Q1 by Overlap Extension PCR (OEP). […] Flanking primers in combination with internal primers provided mutated gene segments, Full length primers included EcoRI and NotI restriction sites for further cloning into pCI expression vector. Site-directed mutations were selected for base of minor allele frequency of nucleotide.
(§6) In mutagenesis by overlap extension PCR method, initial PCRs provided mutated gene segments, with overlapping complementary 3′ ends carrying desired point mutation that were then mixed and used as template for a subsequent PCR to generate the full-length product. Overlapping strands of these intermediate products hybridize at this 3′ region in a subsequent PCR and are extended to generate the full-length product amplified by flanking primers; this shown in FIG. 2. […]
as §3, §4

OR1B1-688 = test: Ca-imaging of mutant OR1B1-688 in HEK293 cells; format: cell-based, human; settings: 200 μM, applied for 20 seconds
Text: as §5, §6, §3, §4

OR1B1 = target: T4, OR1B1 (Homo sapiens, UniProt Q8NGR6); test: Ca-imaging of OR1B1-transfected HEK293 cells; format: cell-based; parameters: key to OR1B1 responded to odorant: ▪: 18 olfactory receptors responded to 32 odorants in related with specific anosmia; settings: for Number of cell responses of OR1B1 (FIG. 8): 200 μM, approximately 2000 cells in three times of measuring, steroid comparison; for Response of OR1B1 to odorant, in words: single odorants 200 μM; for Number of cell responses, Experiment (OR1B1): odorant 200 μM, approximately 2000 transfected cells in three times of measuring (Table 4, FIG. 5)
T4 construct: specific primers, which amplify the complete open reading frame; expressed in transfected cells; host or cells: HEK293
T4 sequence (Q8NGR6 1-317): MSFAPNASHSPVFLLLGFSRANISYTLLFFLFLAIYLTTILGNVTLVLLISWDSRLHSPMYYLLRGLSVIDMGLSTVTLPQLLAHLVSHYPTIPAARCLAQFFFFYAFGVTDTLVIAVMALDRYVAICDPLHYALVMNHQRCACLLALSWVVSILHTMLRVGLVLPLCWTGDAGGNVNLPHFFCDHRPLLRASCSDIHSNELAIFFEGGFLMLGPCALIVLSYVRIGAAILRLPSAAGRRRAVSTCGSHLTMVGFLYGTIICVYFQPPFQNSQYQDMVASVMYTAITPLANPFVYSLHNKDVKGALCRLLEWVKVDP
Protocol: as §1
(§7) Calcium cations and phosphate anions created crystal precipitations coupled with DNA which could invade into the cells through endocytosis. Cells were transiently transfected with plasmid DNA which consists of pCI expression vector and PCR-amplified full-length cDNA of olfactory receptors candidates, and also Gα15, RTP1, Myr-Ric8A, HSC70, and m-Cherry as cofactors. The precipitation could be created after 15-20 min, with dropping the transfection solution on HEK293 cells. Before measuring by Ca-imaging cells were incubated 48-60 hours at 370 C, 5% CO2. Cationic liposome-mediated transfection method was applied to transfect DNA plasmid transiently in HANA3A cells in case of CRE-Luciferase and CRE-SEAP assays.
(§8) Calcium imaging of the transfected HEK293 cells was done by using chambers determinate an inverted microscope (Olympus; IX70) using a 10× objective (CPIanFL N Olympus). Fluorescence emission was determined every 4 s by using a CCD camera (Charge Coupled Device, C9100 Hamamatsu). The capillary tube which was responsible to supply odorants was generated closely above the cells. The columns filled with odorants, DMSO and ATP. Odorants were manually monitored to drop each 4-5 s to transfected cells. Solutions with drop wise form spread on HEK293 cells in 35 mm dishes.
(§9) In experiments, Fura-2 Acetoxymethylester (Fura-2/AM) was applied. The non-polar Fura2/AM is fluorescent but not yet calcium-sensitive. Once diffuses into cell plasma, Fura-2/AM is hydrolyzed to Fura-2 which is calcium-sensitive and functions as Ca2+ chelator. Regardless of the presence of calcium, Fura-2 emits at the wavelength of 510 nm. Once Fura-2 binds to free intracellular Ca2+ in cell plasma, its ratio of excitation at wavelengths of 340 nm and 380 nm is changed and correlated to the amount of intracellular Ca2+. According to this feature, the analysis of 340/380 nm excitation ratio for Fura-2 allows to quantify intracellular calcium levels.
(§10) In preparation for Ca-imaging measurements, transfected HEK293 cells were added 3 it Fura2/AM (3 μM) and incubated 30-45 min at 370 C, 5% CO2. After this step, experiments were carried out in a dark condition (Fura-2 is light-sensitive). After the incubation, medium of cell culture was replaced with 2 ml Ringer's solution.
(§11) Odorants were freshly prepared with DMSO as 1 M stocks solutions. Six mixtures (200 μM each chemical) were applied to cells sequentially (20 s each mixture/30 s Ringer). Those ORs tested with single odorants that had generated a response to odorant mixture group previously. Odorants were prepared in 100-200 μM concentration.
(§12) Ringer's solution was used for washing cells between measuring by two different odorants. Positive response was determined by the timing of the response, the strength of the response (more than twofold higher than the noise amplitude of the baseline), and the shape of the response curve (sharp rise in curve with gradual recovery). The typical shape of response curves was established by observing responses to repeated stimulation with 200 μM of odorants. After testing with single odorants at 100 μM, stimulating odorants were often retested at 200 μM concentrations. To confirm the result of every receptor that produced a significant response curves, the experiment was repeated for twelve times. Finally, cells were exposed to ATP (0.25 mM) which could activate P2Y receptor channel and induce Ca2+ influx into cells. […]

[1] = test system: HEK293 cells transfected with all cofactors and pCI plasmids without ORs; test: Ca-imaging of control HEK293 cells without OR; format: cell-based; settings: for Number of cell responses in controls (FIG. 8, 11, 12): 200 μM, steroid comparison
Protocol: as §1, §7, §8, §9, §10, §11, §12

OR1B1-574 = target: T5, OR1B1-574 (Homo sapiens, UniProt Q8NGR6); test: Ca-imaging of mutant OR1B1-574 in HEK293 cells; format: cell-based; settings: 200 μM, applied for 20 seconds
T5 construct: Rho-tag (N); expressed in transfected cells; host or cells: HEK293
Text: as §5, §6, §3, §4

OR4C3 = target: T6, OR4C3 (Homo sapiens, UniProt Q8NH37); test: Ca-imaging of OR4C3-transfected HEK293 cells; format: cell-based; parameters: key: ▪: 18 olfactory receptors responded to 32 odorants in related with specific anosmia; settings: individual odorant 200 μM, significant response p<0.05
T6 construct: specific primers, which amplify the complete open reading frame; expressed in transfected cells; host or cells: HEK293
Protocol: as §1, §2, §3, §4

OR10C1 = target: T7, OR10C1 (Homo sapiens, UniProt Q96KK4); test: Ca-imaging of OR10C1-transfected HEK293 cells; format: cell-based; parameters: key: ▪: 18 olfactory receptors responded to 32 odorants in related with specific anosmia; settings: individual odorant 200 μM, significant response p<0.05
T7 construct: specific primers, which amplify the complete open reading frame; expressed in transfected cells; host or cells: HEK293
Protocol: as §1, §2, §3, §4

OR5I1 = target: T8, OR5I1 (Homo sapiens, UniProt Q13606); test: Ca-imaging of OR5I1-transfected HEK293 cells; format: cell-based; parameters: key to OR5I1 responded to odorant: ▪: 18 olfactory receptors responded to 32 odorants in related with specific anosmia
T8 construct: specific primers, which amplify the complete open reading frame; expressed in transfected cells; host or cells: HEK293
Protocol: as §1, §2, §3, §4

[2] = HEK293 cells, individual odorant 200 μM, significant response p<0.05

T3 sequence (Q8NGR6 whole entry C262W): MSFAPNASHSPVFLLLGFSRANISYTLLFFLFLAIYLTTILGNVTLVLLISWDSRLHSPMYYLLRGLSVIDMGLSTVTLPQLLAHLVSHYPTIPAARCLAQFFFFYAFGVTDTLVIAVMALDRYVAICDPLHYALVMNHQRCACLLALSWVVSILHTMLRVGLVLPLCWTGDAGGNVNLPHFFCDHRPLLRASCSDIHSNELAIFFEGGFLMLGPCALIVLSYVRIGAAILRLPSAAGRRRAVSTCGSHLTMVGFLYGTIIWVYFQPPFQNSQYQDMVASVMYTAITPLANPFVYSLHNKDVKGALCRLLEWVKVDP
T1 sequence (Q8NGL2 whole entry): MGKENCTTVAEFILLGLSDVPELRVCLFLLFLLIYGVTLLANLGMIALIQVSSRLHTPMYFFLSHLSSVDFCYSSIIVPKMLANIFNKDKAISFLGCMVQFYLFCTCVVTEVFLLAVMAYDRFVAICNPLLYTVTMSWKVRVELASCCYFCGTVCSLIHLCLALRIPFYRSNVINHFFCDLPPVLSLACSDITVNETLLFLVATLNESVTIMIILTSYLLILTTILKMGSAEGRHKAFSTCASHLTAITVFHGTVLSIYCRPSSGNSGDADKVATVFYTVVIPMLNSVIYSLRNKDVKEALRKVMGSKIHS
T6 sequence (Q8NH37 whole entry): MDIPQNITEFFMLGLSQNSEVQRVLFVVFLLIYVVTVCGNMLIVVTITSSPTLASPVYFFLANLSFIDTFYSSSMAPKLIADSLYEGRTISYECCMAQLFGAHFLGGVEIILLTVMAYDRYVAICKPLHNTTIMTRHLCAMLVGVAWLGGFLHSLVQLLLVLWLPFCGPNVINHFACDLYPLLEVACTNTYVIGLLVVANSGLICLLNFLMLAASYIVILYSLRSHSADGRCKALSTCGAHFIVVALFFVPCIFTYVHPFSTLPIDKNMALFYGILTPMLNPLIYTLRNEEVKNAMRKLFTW
T2 sequence (Q8NGL9 whole entry): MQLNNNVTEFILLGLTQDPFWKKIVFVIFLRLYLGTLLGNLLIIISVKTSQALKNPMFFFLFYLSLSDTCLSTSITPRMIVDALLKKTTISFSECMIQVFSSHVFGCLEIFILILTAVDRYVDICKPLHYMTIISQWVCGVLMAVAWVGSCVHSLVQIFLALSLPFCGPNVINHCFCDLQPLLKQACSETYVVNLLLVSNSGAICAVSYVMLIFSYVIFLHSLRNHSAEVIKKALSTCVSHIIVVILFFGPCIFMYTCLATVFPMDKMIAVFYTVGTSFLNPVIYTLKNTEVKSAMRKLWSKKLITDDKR
T8 sequence (Q13606 whole entry): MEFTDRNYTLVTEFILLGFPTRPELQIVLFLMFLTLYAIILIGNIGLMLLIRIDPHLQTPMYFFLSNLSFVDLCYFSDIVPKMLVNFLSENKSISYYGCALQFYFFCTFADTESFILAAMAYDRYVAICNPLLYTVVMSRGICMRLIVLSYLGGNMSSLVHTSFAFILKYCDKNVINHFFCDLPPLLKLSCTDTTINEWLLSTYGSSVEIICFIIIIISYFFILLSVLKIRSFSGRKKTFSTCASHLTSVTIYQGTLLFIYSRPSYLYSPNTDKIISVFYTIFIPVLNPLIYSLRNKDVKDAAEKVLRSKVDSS
T7 sequence (Q96KK4 whole entry): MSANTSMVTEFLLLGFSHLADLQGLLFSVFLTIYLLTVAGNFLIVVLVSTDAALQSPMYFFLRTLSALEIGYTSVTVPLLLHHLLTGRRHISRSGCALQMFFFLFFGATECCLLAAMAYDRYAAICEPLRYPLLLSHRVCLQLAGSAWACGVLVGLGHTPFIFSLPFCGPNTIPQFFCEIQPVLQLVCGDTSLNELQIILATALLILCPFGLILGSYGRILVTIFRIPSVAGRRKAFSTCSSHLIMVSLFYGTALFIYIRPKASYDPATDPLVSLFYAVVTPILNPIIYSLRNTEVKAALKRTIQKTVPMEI

CCCCCC1CCC(=O)O1 (centres unmarked) [Aldehyde C18]
OR5L1 responded to odorant (OR5L1): ▪
OR4C16 responded to odorant (OR4C16; [2]): ▪
Response of OR4C16 to odorant, in words (OR4C16; single odorants 200 μM): responded

C[C@]12CCC(=O)C[C@@H]1CC[C@@H]1[C@@H]2CC[C@]2(C)C=CC[C@@H]12 [Androstenon, 5α-Androst-16-en-3-one]
Response of OR1B1-789 in comparison to OR1B1 WT (OR1B1-789; listed as androstenone): no significantly different responses; also recorded: did not show any significant difference
Response of OR1B1-688 in comparison to OR1B1 WT (OR1B1-688; listed as androstenone): no significantly different responses; also recorded: did not show any significant difference
Number of cell responses of OR1B1 (FIG. 8) (OR1B1): 13
OR1B1 responded to odorant (OR1B1; Ca-imaging, HEK293 cells, individual odorant 200 μM, significant response p<0.05): ▪
Response of OR1B1 to odorant, in words (OR1B1; Ca-imaging, listed as androstenone): significantly (P<0.05) activated; also recorded: responded
Number of cell responses, Experiment (OR1B1) (OR1B1; listed as Andorestenone): 20
Number of cell responses, Experiment (OR1B1) (OR1B1; listed as androstenone): 35
Number of cell responses in controls (FIG. 8, 11, 12) [1]: 3
Number of cell responses, Control ([1]; odorant 200 μM, three times of measuring (Table 4, FIG. 5)): 0
Response of OR1B1-574 in comparison to OR1B1 WT (OR1B1-574): not able to reproduce responses

C/C=C/C(=O)C1=C(C)CCCC1(C)C [B-Damascone, β-Damascone]
OR5L1 responded to odorant (OR5L1): ▪
OR4C3 responded to odorant (OR4C3): ▪

CCCCCC1C(=O)CCC1CC(=O)OC (centres unmarked) [Hedione, Hedion]
OR10C1 responded to odorant (OR10C1): ▪

CC(C)CCC(=O)O [Isocaproic acid]
OR4C3 responded to odorant (OR4C3): ▪

CCCCCCCC=O [Octanal]
OR5I1 responded to odorant (OR5I1; [2]): ▪
Response of OR5I1 to odorant, in words (OR5I1; single odorants 200 μM): responded

CCC(C)=O [Odorant 2-butanone, 2-Butanone]
OR10C1 responded to odorant (OR10C1): ▪

C[C@]12CC[C@H]3[C@@H](CCC4=CC(=O)CC[C@@]43C)[C@@H]1CC[C@@H]2O [testosterone]
Response of OR1B1-789 in comparison to OR1B1 WT (OR1B1-789): no significantly different responses; also recorded: did not show any significant difference
Response of OR1B1-688 in comparison to OR1B1 WT (OR1B1-688): no significantly different responses; also recorded: did not show any significant difference
Number of cell responses of OR1B1 (FIG. 8) (OR1B1): 12
Response of OR1B1 to odorant, in words (OR1B1; Ca-imaging): responded
Number of cell responses in controls (FIG. 8, 11, 12) [1]: 1
Response of OR1B1-574 in comparison to OR1B1 WT (OR1B1-574): not able to reproduce responses
